Measurements reported in patent US20240360143A1, “[1,2,4]TRIAZOLO[4,3-A]PYRIMIDIN-7(8H)-ONE AS MITOCHONDRIAL PYRUVATE CARRIER INHIBITORS FOR USE IN THE TREATMENT OF CANCER” (MPC THERAPEUTICS SA, priority 2021, published 2024).

Key:
[1] = biological target: T1, mitochondrial pyruvate carrier (MPC) (Homo sapiens, UniProt O95563+Q9Y5U8); experiment: Seahorse Xfe24 pyruvate-dependent OCR in HeLa cells; type: cell-based; conditions: pyruvate-dependent OCR in presence of fCCP
T1 sequence (Q9Y5U8 1-109): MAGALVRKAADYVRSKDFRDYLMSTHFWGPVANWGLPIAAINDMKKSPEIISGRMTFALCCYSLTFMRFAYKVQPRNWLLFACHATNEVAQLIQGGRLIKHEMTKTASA
T1 sequence (O95563 1-127): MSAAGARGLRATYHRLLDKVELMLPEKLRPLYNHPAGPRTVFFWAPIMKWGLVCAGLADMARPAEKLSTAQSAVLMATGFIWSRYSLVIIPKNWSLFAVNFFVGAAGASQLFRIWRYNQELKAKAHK
Method: The inhibition of mitochondrial pyruvate carrier (MPC) by compounds of the invention have been tested as follows and their inhibitory activity was expressed as IC50s values.
Cells are plated in the customized Seahorse plates. For HeLa cells, seeding is at 4×10^4 cells/well in […] DMEM, 10% FBS, 1% pen/strep/glutamine. 3 wells are left blank (medium alone) for internal calibration. The assay cartridge is hydrated overnight at 37° C. in 1 ml/well XF Calibrant Solution.
Since 50 μl of compound of the invention will be injected into 450 μl washed cells, compounds are made up in assay medium at 10× the final desired concentration
For dose response analyses, compounds are tested at final concentrations 30, 5, 0.83, 0.14, 0.023 μM (1:6 serial dilutions from […])
Positive control: […] (the parent hit compound which gave rise to the actual series)
Negative control: Assay medium alone.
The seahorse reagent plate is prepared as follows and transfered to the Xfe24 analyser for the calibration step:
The medium is almost completely removed from the well without allowing cells to dry Cells are washed twice with 300 μl Assay Medium. 450 μl fresh Assay Medium is added to each well. The plate is transferred to the Xfe24 analyser for measurement of pyruvate-dependent OCR. All values are normalized to the initial basal respiration rate in each well which is measured prior to addition of compounds and designated as 100%. IC50 determination is based on the average of the 3 measurements made in the presence of fCCP, taking 30 μM parent hit compound as maximal inhibition and PBS/Ca/Mg as zero inhibition.

[2] = system: B16F10 tumors modified to express HER2; experiment: Adoptive cell transfer of HER2-CAR T cells produced with compound, B16 melanoma expressing HER2; type: in vivo, mouse
Method: For each retroviral preparation, 8×10^6 Phoenix ECO cells (ATCC, CRL-3214) were plated in a T150 tissue culture flask in RPMI medium supplemented with 10% FCS, 10 mM HEPES and 50 U/ml Penicillin-Streptomycin. On the next day, cells were transfected with 21 μg of the retroviral construct with Turbofect transfection reagent (Thermo Fischer Scientific), according to the manufacturer protocol. The medium was changed daily and collected at 48 h and 72 h post transfection. 48 h and 72 h virus supernatants were pooled and sedimented at 22′000 rcf for 2 h at 4° C. Finally, retrovirus pellets were resuspended in 2 ml of full RPMI medium and divided in 8 aliquots of 250 μl each, which were snap-frozen on dry ice and stored at −80° C.
Spleens from wild type CD45.1.2 mice were smashed on a 70 μm cell strainer. CD8 T cells were purified using the Easy SepTM Mouse CD8+ T Cell Isolation Kit (StemCell) according to the manufacturer protocol. 0.5×10^6 CD8 T cells were plated in 48 well plates in 0.5 ml of complete RPMI 1640 medium supplemented with 10% FCS, antibiotics and 50 IU/ml of recombinant human IL-2, and exposed to either DMSO or 20 μM Compound 45. Mouse T-cells were activated with Activator CD3/CD28 Dynabeads (Gibco) at a ratio of 2 beads per cell. Retroviral infection was conducted at 37° C. for 24 h. Untreated 48 well plates were coated for 24 h with 20 μg/ml of recombinant human fibronectin (Takara Clontech) at 4° C., followed by PBS 2% BSA for 30 min at RT and finally washed with PBS. One aliquot of concentrated retroviruses was plated in each fibronectin-coated 48 well plates and centrifuged for 90 min at 2′000 rcf and 32° C. Then, 0.5×10^6 of 24 h-activated CD8 T cells were added on top of the viruses and spun for 10 min at 400 rcf and 32° C. On day 3, the medium was replaced with 10 IU/ml recombinant human IL-2, 10 ng/ml recombinant human IL-7 and 10 ng/ml recombinant human IL-15, containing either DMSO or 20 μM Compound 45. Cells were then split every second day.
CD45.2 C57BL/6 mice were engrafted subcutaneously with 4×10^5 B16F10 tumors modified to express HER2. Six days later, mice were lymphodepleted with 100 mg/kg cyclophosphamide (Sigma Aldrich, C7397) injected i.p., and homogeneous groups were constituted with regard to tumor volume. T cells (5×10^6) were adoptively transferred i.v. on the next day. Tumor volumes were measured three times a week with a caliper and calculated using the formula: V=π×[d2×D]/6, where d is the minor tumor axis and D is the major tumor axis. Tumors were collected and separated from skin. Single cell suspensions were obtained with the Mouse Tumor Dissociation Kit (Miltenyi, 130-096-730) according to the manufacturer protocol. Spleen and draining lymph node were smashed on a 70 μm cell strainer. Single cell suspensions were stained with antibodies before flow cytometry analysis.
Polyclonal CD8 T cells from wild type mice were activated in the presence of DMSO or 20 μM Compound 45 and then retrovirally transduced with a HER2-CAR construct (FIG. 4A). […] No difference in percentages of memory precursor effector T cells could be detected (FIG. 4F) and TCF1-expressing T cells (FIG. 4G). […] More tumor-infiltrating Compound 45-treated CAR T cells expressed TCF1 (FIG. 5H). […] Finally, fewer Compound 45-treated CAR T cells were expressing the inhibitory molecules PD1 and TIM3, indicating a less exhausted phenotype (FIG. 5K).

O=c1cc(Cc2ccccc2)n2c(SCc3c(F)cccc3Cl)nnc2[nH]1 [Compound 45, 5-benzyl-3-[(2-chloro-6-fluorobenzyl)sulfanyl][1,2,4]triazolo[4,3-a]pyrimidin-7 (8H)-one]
IC50 [1]: 64 nM | tumor growth ([2]; HER2CAR T cells produced with 20 μM compound, 5×10^6 cells i.v. (FIGS. 4B and 4C)): significantly suppress | number of CAR T cells in blood ([2]; blood 12 days after ACT (FIG. 4D)): no difference | percentage of HER2CAR T cells forming short-lived effector T cells ([2]; blood 12 days after ACT (FIG. 4E)): significantly reduced | percentages of memory precursor effector T cells ([2]; blood 12 days after ACT (FIG. 4F)): No difference | percentages of TCF1-expressing T cells ([2]; blood 12 days after ACT (FIG. 4G)): No difference | central memory T cell differentiation ([2]; draining lymph node (FIG. 5B)): Neither in the draining lymph node nor in the spleen could be observed a difference | HER2CAR T cells expressing TCF1 ([2]; draining lymph node (FIG. 5C)): Neither in the draining lymph node nor in the spleen could be observed a difference | engraftment of HER2CAR T cells in the spleen ([2]; spleen (FIG. 5D)): increase was significant | central memory T cell differentiation ([2]; spleen (FIG. 5E)): Neither in the draining lymph node nor in the spleen could be observed a difference | HER2CAR T cells expressing TCF1 ([2]; spleen (FIG. 5F)): Neither in the draining lymph node nor in the spleen could be observed a difference | CAR T cells in tumors ([2]; tumor (FIG. 5G)): significantly more | tumor-infiltrating CAR T cells expressing TCF1 ([2]; tumor (FIG. 5H)): More | CAR T cells expressing the inhibitory molecules PD1 and TIM3 ([2]; tumor (FIG. 5K)): fewer | progenitor exhausted T cells (TCF1-positive) ([2]; tumor, co-expression of TCF1 with PD1 (FIG. 5I)): more | terminally differentiated exhausted T cells (TCF1-negative) ([2]; tumor, co-expression of TCF1 with PD1 (FIG. 5J)): less | engraftment of HER2CAR T cells in the tumor-draining lymph nodes ([2]; tumor-draining lymph nodes (FIG. 5A)): trend towards an increased engraftment
